Here are results for 1 substance from article PMC5618191 (Toxins, 2017).

In test [1] the test system is KB-3-1 cells. Put plainly: Cell cycle analysis (PI staining, flow cytometry). The format is cell-based, human. The following applies: KB-3-1, subtoxic concentrations. As for the experimental part: 1. Supplementary Materials and Methods
KB-3-1 cells (3.5x105/per well) were seeded into 6-well plates and treated the next day with the […]
After incubation at 37°C for another 24 h, cells were trypsinized, centrifuged (8 min, 300g, RT) and fixed in 70% ethanol and stored at -20°C overnight.
Fixed cells were centrifuged (1 min, 6000g) and resuspended in 100 µL of 0.9% NaCl. RNA was digested with 0.2 mg/mL of RNase for 30 min at 37°C. DNA was stained with propidium iodide (PI, 0.01 mg/mL, Sigma-Aldrich St. Louis, Missouri, USA) for 30 min at 4°C in the dark. Afterwards, cells were analyzed by flow cytometry using FACS Calibur (BD Biosciences, Franklin Lakes, New Jersey, USA) as described previously. CellQuest Pro software (BD Biosciences) was utilized to determine percentages of the respective cell cycle phases. […]
(§1) The following primary […]
(§2) antibodies specific for the following targets were diluted 1:1000 in TBST/3% BSA (w/v): PARP, Bak, Bax, Bim, Bcl-xL (polyclonal, Cell Signaling Technology, Beverly, MA, USA), caspase 9, cl. caspase 9 (monoclonal, Cell Signaling Technology) and β-actin (monoclonal, Clone AC-15, Sigma-Aldrich).
(§3) Secondary horseradish peroxidase-labeled antibodies (goat anti-rabbit or anti-mouse, Santa Cruz Biotechnology, Dallas, Texas, TX, USA) were diluted 1:10,000 in TBST/1% BSA. […]

Test [2] relates to KB-3-1 cells. On the set-up: method as in PMID 19517454. The following applies: two-year in vitro selection process; cited from earlier work.
Test [3] relates to KB-3-1 cells. Description: Annexin-V/PI staining (cell death analysis). The format is cell-based, human. The conditions noted are these: KB-3-1, 24 h. As for the experimental part: (§4) 1. Supplementary Materials and Methods […]
1.2 Annexin-V/PI Staining
KB-3-1 cells were seeded (2x10^5cells/well) and treated on the following day for 24 h with the […]
Cells were trypsinized, centrifuged (300g, 5 min) and resuspended in 100 µL buffer A (10 mM HEPES, 140 mM NaCl and 2.5 mM CaCl2) and stained for 15 min in the dark with PI (1 µg/mL) and Annexin-V-APC (20 µL/mL, BD Biosciences). Two-hundred µL of buffer A were then added and 10,000 cells were measured by FACS analysis (FACSCalibur; Becton Dickinson). Percentages of viable, early and late apoptotic cells and of necrotic cells were determined by CellQuest Pro software (Becton, Dickinson and Company, NY, USA). […]
as §1, §2, §3
(b) Mean percentages (± SD) of early (white bars) and late apoptotic (gray bars) and of necrotic cells (black bars) were determined by Annexin-V/PI staining after cells were treated for 24 h with the […]

The next test deals with HUVEC cells. Put plainly: Vessel forming and migratory ability of HUVEC cells. Type of test: cell-based, human. The conditions noted are these: subtoxic concentrations, unpublished data.
Test [4] deals with KB-3-1 cells. Description: Western blot analysis of apoptosis proteins. Type of test: cell-based, human. The following applies: KB-3-1, 24 h. As for the experimental part:
as §4
1.3 Western Blot Analysis […]
according to standard procedures, separated by SDS-PAGE, and transferred to a polyvinylidene difluoride membrane for Western blotting as described previously. The following primary antibodies specific for the following targets were diluted 1:1000 in TBST/3% BSA (w/v): PARP, Bak, Bax, Bim, Bcl-xL (polyclonal, Cell Signaling Technology, Beverly, MA, USA), caspase 9, cl. caspase 9 (monoclonal, Cell Signaling Technology) and β-actin (monoclonal, Clone AC-15, Sigma-Aldrich).
Secondary horseradish peroxidase-labeled antibodies (goat anti-rabbit or anti-mouse, Santa Cruz Biotechnology, Dallas, Texas, TX, USA) were diluted 1:10,000 in TBST/1% BSA.
(black circles), human non-malignant keratinocytes HaCaT (open circles), murine colon carcinoma CT-26 (asterisks), human cervix carcinoma KB-3-1 (gray triangle) and human colon carcinoma SW480 cells (gray square) at higher density. Cells were grown to a 50-60% confluence and treated with the […]
The IC50 level is indicated by the dotted line. Mean values (± SD) of one representative experiment in triplicate are shown.
Figure S4. […]
Significant differences to untreated controls are marked by asterisks (***p<0.001). (c) Expression of PARP and caspase 9 and amount of cleaved (Cl.) PARP and cleaved Caspase 9, as well as protein expression of Bim, Bax, Bak and Bcl-xL in beauvericin-treated (24 h) and untreated cells were determined by Western Blotting. β-actin served as loading control. […]
On the technique in general: A western blot detects proteins with antibodies after separation by electrophoresis.

A value given as a limit tells only on which side of the number the result lay.

For beauvericin, the Cell cycle effect entry with KB-3-1 cells [1] is on record as “cell cycle arrest in the G0/G1-phase”. Further, in the test on KB-3-1 cells [2], the Acquisition of resistance result is recorded as “did not induce beauvericin-unresponsiveness”. Further, the “Concentration at which induction of apoptotic cell death was clearly detectable” value in the test on KB-3-1 cells [3] is listed as more than 2 µM. Besides, the “Vessel forming and migratory ability of HUVEC cells” value in the test with HUVEC cells is on record as “distinctly inhibited”. Also, in the test with KB-3-1 cells [4], the “Antiapoptotic Bcl-xL” value is listed as “reduced”; the “Cleavage of PARP and caspase 9” value was “induced”; the “Proapoptotic Bcl-2 family members Bim and Bak” value is given as “upregulation”.
